Data published in ChEMBL document CHEMBL3525899, “Identification of the cytochrome P450 and other enzymes involved in the in vitro oxidative metabolism of a novel antidepressant, Lu AA21004” (Drug Metab Dispos, 2012).

How the values were obtained:
[1] = Drug metabolism in human liver S9 fractions assessed as formation of 3-methyl-4-(2-(piperazin-1-yl)phenylthio)benzoic acid at 8 to 50 uM after 20 mins by HPLC/MS-MS analysis in absence of NADPH regenerating system with NAD+; format: ADME, tissue-based; conditions: s9, 20 min
[2] = test system: Liver microsome; assay: Drug metabolism in phenotyped human liver microsomes assessed as formation of 3-methyl-4-(2-(piperazin-1-yl)phenylthio)benzoic acid at 8 to 50 uM after 15 mins by HPLC/MS-MS analysis in presence of NADPH regenerating system with NADP+; format: ADME; conditions: 0.25 h
[3] = Intrinsic clearance in pooled human liver S9 fractions assessed as Vmax(app)/Km(app) for formation of 3-methyl-4-(2-(piperazin-1-yl)phenylthio)benzoic acid per mg of protein after 20 mins by Michaelis-Menten plot analysis in presence of NADPH regenerating system with NADP+; format: ADME, subcellular, Liver S9 fraction; conditions: s9, 20 min
[4] = Drug metabolism in pooled human liver S9 fractions assessed as formation of 3-methyl-4-(2-(piperazin-1-yl)phenylthio)benzoic acid at 2 to 50 uM after 20 mins by HPLC/MS-MS analysis in presence of NADPH regenerating system with NAD+, aldehyde dehydrogenase inhibitor disulfiram, aldehyde oxidase inhibitor raloxifene and alcohol dehydrogenase inhibitor 4-methylpyrazole; format: ADME, subcellular, Liver S9 fraction; conditions: s9, 20 min
[5] = test system: Liver microsome; assay: Drug metabolism in human liver microsomes assessed as formation of 3-methyl-4-(2-(piperazin-1-yl)phenylthio)benzoic acid at 50 uM after 20 mins by HPLC/MS-MS analysis in presence of NADPH regenerating system with NADP+; format: ADME
[6] = molecular target: Cytochrome P450 2D6 (Homo sapiens, UniProt P10635); assay: Activity of human recombinant CYP2D6 expressed in microsomes isolated from human AHH-1 cells assessed as enzyme-mediated compound formation treated with Lu AA21004 at 8 to 50 uM after 120 mins by HPLC/MS-MS analysis in presence of NADPH regenerating system with NADP+; format: ADME, cell-free; conditions: 2 h
[7] = test system: Liver microsome; assay: Intrinsic clearance in pooled human liver microsomes assessed as Vmax(app)/Km(app) for formation of 3-methyl-4-(2-(piperazin-1-yl)phenylthio)benzoic acid per mg of protein after 20 mins by Michaelis-Menten plot analysis in presence of NADPH regenerating system with NADP+; format: ADME
[8] = test system: Liver microsome; assay: Drug metabolism in human liver microsomes assessed as formation of 3-methyl-4-(2-(piperazin-1-yl)phenylthio)benzoic acid at 50 uM after 20 mins by HPLC/MS-MS analysis in absence of NADPH regenerating system with NADP+; format: ADME
[9] = molecular target: Cytochrome P450 2C9 (Homo sapiens, UniProt P11712); assay: Activity of human recombinant CYP2C9 expressed in microsomes isolated from human AHH-1 cells assessed as enzyme-mediated compound formation treated with Lu AA21004 at 8 to 50 uM after 120 mins by HPLC/MS-MS analysis in presence of NADPH regenerating system with NADP+; format: ADME, cell-free; conditions: 2 h
[10] = test system: Liver microsome; assay: Drug level in pooled human liver microsomes treated with Lu AA21004 at 100 uM after 30 to 180 mins by HPLC/MS-MS analysis in presence of NADPH regenerating system with NADP+; format: ADME
[11] = Drug metabolism in pooled human liver S9 fractions assessed as formation of 3-methyl-4-(2-(piperazin-1-yl)phenylthio)benzoic acid per mg of protein after 20 mins by Michaelis-Menten plot analysis in presence of NADPH regenerating system with NADP+; format: ADME, subcellular, Liver S9 fraction; conditions: s9, 20 min
[12] = test system: Liver microsome; assay: Drug metabolism in pooled human liver microsomes assessed as formation of 3-methyl-4-(2-(piperazin-1-yl)phenylthio)benzoic acid after 20 mins by Michaelis-Menten plot analysis in presence of NADPH regenerating system with NADP+; format: ADME; conditions: read-out: Km(app)
[13] = test system: Liver microsome; assay: Drug level in phenotyped human liver microsomes treated with Lu AA21004 at 8 to 50 uM after 60 mins by HPLC/MS-MS analysis in presence of NADPH regenerating system with NADP+; format: ADME; conditions: 1 h
[14] = molecular target: Liver microsome; assay: Uncompetitive substrate inhibition in pooled human liver microsomes assessed as formation of 3-methyl-4-(2-(piperazin-1-yl)phenylthio)benzoic acid after 20 mins by Michaelis-Menten plot analysis in presence of NADPH regenerating system with NADP+; format: ADME
[15] = Drug metabolism in pooled human liver S9 fractions assessed as formation of 3-methyl-4-(2-(piperazin-1-yl)phenylthio)benzoic acid at 2 to 50 uM after 20 mins by HPLC/MS-MS analysis in presence of NADPH regenerating system with NAD+ and xanthine oxidase inhibitor allopurinol; format: ADME, subcellular, Liver S9 fraction; conditions: s9, 20 min
[16] = test system: Liver microsome; assay: Drug metabolism in pooled human liver microsomes assessed as formation of 3-methyl-4-(2-(piperazin-1-yl)phenylthio)benzoic acid per mg of protein after 20 mins by Michaelis-Menten plot analysis in presence of NADPH regenerating system with NADP+; format: ADME
[17] = Drug metabolism in pooled human liver S9 fractions assessed as formation of 3-methyl-4-(2-(piperazin-1-yl)phenylthio)benzoic acid after 20 mins by Michaelis-Menten plot analysis in presence of NADPH regenerating system with NADP+; format: ADME, subcellular, Liver S9 fraction; conditions: s9, 20 min, read-out: Km(app)
[18] = Drug metabolism in human liver S9 fractions assessed as formation of 3-methyl-4-(2-(piperazin-1-yl)phenylthio)benzoic acid at 8 to 50 uM after 20 mins by HPLC/MS-MS analysis in presence of NADPH regenerating system with NAD+; format: ADME, subcellular, Liver S9 fraction; conditions: s9, 20 min
[19] = molecular target: Cytochrome P450 2C19 (Homo sapiens, UniProt P33261); assay: Activity of human recombinant CYP2C19 expressed in microsomes isolated from human AHH-1 cells assessed as enzyme-mediated compound formation treated with Lu AA21004 at 8 to 50 uM after 120 mins by HPLC/MS-MS analysis in presence of NADPH regenerating system with NADP+; format: ADME, cell-free; conditions: 2 h
[20] = molecular target: T1, Cytochrome P450 2B6 (Homo sapiens, UniProt P20813); assay: Activity of human recombinant CYP2B6 expressed in microsomes isolated from human AHH-1 cells assessed as enzyme-mediated compound formation treated with Lu AA21004 at 8 to 50 uM after 120 mins by HPLC/MS-MS analysis in presence of NADPH regenerating system with NADP+; format: ADME, cell-free; conditions: 2 h
T1 sequence (P20813 whole entry): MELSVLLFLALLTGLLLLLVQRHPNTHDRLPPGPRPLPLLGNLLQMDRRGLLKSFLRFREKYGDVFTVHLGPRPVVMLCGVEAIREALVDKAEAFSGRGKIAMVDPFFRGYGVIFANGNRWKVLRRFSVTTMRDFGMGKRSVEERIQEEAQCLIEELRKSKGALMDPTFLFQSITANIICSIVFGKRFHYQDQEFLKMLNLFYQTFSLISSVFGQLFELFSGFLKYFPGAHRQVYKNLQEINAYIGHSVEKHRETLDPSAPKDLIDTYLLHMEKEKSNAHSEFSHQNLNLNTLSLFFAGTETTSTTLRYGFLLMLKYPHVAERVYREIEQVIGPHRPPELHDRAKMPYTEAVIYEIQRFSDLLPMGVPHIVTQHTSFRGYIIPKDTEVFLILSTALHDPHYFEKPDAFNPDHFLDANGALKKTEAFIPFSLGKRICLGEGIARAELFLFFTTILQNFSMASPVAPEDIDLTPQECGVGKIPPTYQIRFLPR

Chain of Cytochrome P450 2C9 (P11712 whole entry): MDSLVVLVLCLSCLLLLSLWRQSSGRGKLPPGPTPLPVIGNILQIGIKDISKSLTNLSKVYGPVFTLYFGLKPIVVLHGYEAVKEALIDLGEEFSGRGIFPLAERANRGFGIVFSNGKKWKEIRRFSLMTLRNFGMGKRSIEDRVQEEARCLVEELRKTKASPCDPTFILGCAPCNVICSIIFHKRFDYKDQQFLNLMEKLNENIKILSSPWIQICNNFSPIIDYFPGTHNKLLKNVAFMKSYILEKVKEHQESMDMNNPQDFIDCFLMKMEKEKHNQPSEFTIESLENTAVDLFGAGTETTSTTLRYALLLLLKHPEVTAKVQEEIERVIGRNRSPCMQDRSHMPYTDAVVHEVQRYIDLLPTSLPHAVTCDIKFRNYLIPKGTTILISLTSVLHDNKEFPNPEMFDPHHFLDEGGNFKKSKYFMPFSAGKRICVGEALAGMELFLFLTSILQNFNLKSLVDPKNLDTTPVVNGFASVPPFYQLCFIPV
Chain of Cytochrome P450 2C19 (P33261 whole entry): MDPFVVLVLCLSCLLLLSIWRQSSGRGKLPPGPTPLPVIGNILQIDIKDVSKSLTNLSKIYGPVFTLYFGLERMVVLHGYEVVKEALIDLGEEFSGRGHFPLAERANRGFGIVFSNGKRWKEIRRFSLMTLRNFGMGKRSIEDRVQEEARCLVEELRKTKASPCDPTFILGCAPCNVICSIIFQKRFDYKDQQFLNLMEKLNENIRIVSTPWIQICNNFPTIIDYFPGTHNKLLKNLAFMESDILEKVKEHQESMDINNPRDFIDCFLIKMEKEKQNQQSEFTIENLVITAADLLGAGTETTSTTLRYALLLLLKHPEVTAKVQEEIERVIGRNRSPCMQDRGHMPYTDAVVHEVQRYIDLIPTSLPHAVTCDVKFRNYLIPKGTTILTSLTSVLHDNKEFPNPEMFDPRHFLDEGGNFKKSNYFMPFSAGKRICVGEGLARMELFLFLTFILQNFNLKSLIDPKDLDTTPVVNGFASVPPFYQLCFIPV
Chain of Cytochrome P450 2D6 (P10635 whole entry): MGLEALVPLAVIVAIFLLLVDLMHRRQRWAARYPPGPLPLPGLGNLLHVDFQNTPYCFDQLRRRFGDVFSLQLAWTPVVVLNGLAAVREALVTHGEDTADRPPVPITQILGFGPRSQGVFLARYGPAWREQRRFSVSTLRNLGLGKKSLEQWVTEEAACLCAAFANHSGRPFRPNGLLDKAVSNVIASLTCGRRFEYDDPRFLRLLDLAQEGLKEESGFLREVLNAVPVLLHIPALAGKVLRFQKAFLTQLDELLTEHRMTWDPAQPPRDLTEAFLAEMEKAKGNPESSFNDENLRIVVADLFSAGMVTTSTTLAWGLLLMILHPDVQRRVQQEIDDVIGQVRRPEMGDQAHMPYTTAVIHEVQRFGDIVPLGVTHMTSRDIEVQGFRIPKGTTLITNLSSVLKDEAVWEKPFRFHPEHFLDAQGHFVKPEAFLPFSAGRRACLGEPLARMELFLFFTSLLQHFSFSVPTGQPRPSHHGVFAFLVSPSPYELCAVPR

| Drug metabolism [1] | Drug metabolism [2] | Vmax/Km [3] | Drug metabolism [4] | Drug metabolism [5] | Drug metabolism [6] | Vmax/Km [7] | Drug metabolism [8] | Drug metabolism [9] | Drug metabolism [10] | Vmax(app) [11] | Km [12] | Drug metabolism [13] | Ki [14] | Drug metabolism [15] | Vmax(app) [16] | Km [17] | Drug metabolism [18] | Drug metabolism [19] | Drug metabolism [20] | SMILES |
| --- | --- | --- | --- | --- | --- | --- | --- | --- | --- | --- | --- | --- | --- | --- | --- | --- | --- | --- | --- | --- |
| metabolite_detected | metabolite_detected | 922 µL/min | metabolite_not_detected | metabolite_detected | metabolite_detected | 0.621 µL/min | metabolite_detected | metabolite_detected | metabolite_detected | 1567 pmol/min | 95 µM | metabolite_detected | 275 µM | metabolite_detected | 59 pmol/min | 1.7 µM | metabolite_detected | metabolite_detected | – | Cc1cc(CO)ccc1Sc1ccccc1N1CCNCC1 |
| – | – | – | – | – | – | – | – | metabolite_detected | metabolite_detected | – | – | metabolite_detected | – | – | – | – | – | metabolite_detected | metabolite_detected | Cc1ccc(Sc2ccccc2N2CCN(O)CC2)c(C)c1 |
